# In the SangsterLogP compilation:
# Test: method code SF-AS, from DOI: 10.1021/jm00089a008, PMID: 1317921
# Conditions: pH 7.4
row,Structure (SMILES),logD
1,CC(C)N(/C=N/c1ccn([C@H]2C[C@H](F)[C@@H](CO)O2)c(=O)n1)C(C)C,1.14
2,CC(C)N(/C=N/c1ccn([C@H]2CC[C@@H](CO)O2)c(=O)n1)C(C)C,0.72
3,O=c1nc(/N=C/N2CCOCC2)ccn1C1CC(F)C(CO)O1 (stereo not drawn),-0.68
